One series has as its target T1, OCT2 (Homo sapiens, UniProt O15244).
T1 sequence (O15244 1-555): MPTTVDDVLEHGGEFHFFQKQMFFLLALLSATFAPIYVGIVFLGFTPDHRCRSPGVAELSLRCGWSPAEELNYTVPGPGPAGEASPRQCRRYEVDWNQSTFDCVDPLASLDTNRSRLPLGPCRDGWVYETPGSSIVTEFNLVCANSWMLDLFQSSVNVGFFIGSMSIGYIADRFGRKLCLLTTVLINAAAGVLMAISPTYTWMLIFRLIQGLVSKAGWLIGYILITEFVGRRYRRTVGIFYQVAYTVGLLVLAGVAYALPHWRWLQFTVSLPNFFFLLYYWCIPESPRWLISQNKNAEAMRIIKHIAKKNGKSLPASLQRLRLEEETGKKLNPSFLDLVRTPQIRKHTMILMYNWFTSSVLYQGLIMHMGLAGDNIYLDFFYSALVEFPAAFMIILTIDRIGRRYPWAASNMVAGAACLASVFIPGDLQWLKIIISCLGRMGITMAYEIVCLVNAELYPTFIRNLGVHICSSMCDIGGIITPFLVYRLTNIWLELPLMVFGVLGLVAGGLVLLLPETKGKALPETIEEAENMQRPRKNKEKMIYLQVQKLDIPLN
In words: in vitro. The following applies: mdck.

In a further series the target is T2, OCT1 (Homo sapiens, UniProt O15245).
T2 sequence (O15245 1-554): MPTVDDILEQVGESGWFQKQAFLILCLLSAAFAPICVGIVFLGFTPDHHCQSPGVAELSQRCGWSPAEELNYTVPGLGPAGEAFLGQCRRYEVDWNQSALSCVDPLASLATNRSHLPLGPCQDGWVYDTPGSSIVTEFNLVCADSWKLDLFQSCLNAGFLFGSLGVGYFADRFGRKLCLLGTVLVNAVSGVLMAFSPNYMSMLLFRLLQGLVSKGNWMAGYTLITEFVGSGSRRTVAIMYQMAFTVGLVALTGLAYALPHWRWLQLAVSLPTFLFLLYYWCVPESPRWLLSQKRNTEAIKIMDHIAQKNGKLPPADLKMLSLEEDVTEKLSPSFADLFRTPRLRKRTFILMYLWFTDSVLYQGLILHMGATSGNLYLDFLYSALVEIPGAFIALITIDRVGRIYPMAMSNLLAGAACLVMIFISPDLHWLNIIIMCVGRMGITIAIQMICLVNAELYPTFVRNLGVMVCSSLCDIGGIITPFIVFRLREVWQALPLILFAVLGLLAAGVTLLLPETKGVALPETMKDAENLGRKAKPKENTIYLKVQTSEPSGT
In words: in vitro. The conditions noted are these: mdck.

The conditions of series [1]: cumulative dose 450–600 mg/m^2; cited from earlier work.
The target in the next series is T3, OATP1A2*3 (Homo sapiens, UniProt P46721, E172D).
T3 sequence (P46721 1-670 E172D): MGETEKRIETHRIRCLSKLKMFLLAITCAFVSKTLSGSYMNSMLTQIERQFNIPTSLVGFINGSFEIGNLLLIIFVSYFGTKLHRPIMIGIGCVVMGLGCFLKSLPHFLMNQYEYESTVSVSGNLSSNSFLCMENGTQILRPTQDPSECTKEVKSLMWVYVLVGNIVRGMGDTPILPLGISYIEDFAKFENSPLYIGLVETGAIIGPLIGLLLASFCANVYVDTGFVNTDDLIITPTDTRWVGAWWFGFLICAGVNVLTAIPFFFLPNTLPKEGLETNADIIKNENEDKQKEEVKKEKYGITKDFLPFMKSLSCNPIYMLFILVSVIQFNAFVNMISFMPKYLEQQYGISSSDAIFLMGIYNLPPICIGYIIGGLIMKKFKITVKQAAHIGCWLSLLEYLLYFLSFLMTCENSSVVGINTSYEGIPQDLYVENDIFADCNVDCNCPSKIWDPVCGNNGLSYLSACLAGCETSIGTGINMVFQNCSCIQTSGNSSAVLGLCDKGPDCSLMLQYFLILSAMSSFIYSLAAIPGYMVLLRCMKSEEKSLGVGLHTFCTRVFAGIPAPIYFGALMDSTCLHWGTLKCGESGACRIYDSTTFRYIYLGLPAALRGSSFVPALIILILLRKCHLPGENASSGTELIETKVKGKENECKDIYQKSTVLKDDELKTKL
The series can be described thus: in vitro.

For series [2] the following is noted: during chemotherapy, no reference given, cited from earlier work.
A further series concerns the target T4, OATP1A2*1 (Homo sapiens, UniProt P46721).
T4 sequence (P46721 1-670): T3 sequence (P46721 1-670 E172D) with D172E
The series can be described thus: in vitro.

The subject of the next series is OCT1-3 and OATP1A2. The series can be described thus: in vitro. The following applies: human, OATP1A2*1 and OCT1-3 transfected cells.

Each structure is given as a SMILES string. Changes are numbered by the printed parent chain. Read-outs that look alike come from different tables or passages of the source.

Protocol for OATP1A2*1: (§1) Cellular uptake studies: For all transport studies, cells were seeded in 24-well plates and incubated in a full growth medium at an initial density of 200,000 cells/well for 3 days. Before starting each transport experiment, cells were washed with a pre-warmed (37 °C) incubation buffer [64]. […] Protein concentration of whole cell lysate was determined to quantify cell density after each experiment using the BCA assay according to the manufacturer’s instructions (Pierce, Rockford, IL, USA).
(§2) Protein abundance of OATP1A2*1–*3 and OCT1–3 were measured by mass spectrometry-based targeted proteomics using a validated LC-MS/MS method as recently described [65].
(§3) 200 μL of each cell lysate sample was mixed with 25 μL internal standard (5 µg/mL daunorubicin), 25 μL citric acid (1%), and 400 μL ice-cold acetonitrile for protein precipitation. […] The clear supernatant was transferred to HPLC vials. The measurement and quantitative evaluation were carried out using the LC-MS/MS system QTRAP 4000® (AB SCIEX, Darmstadt, Germany) and the Software Analyst® 1.4 (Applied Biosystems, Darmstadt, Germany).
(§4) Statistical evaluation: All experiments were performed at least three times unless otherwise noted. The OATP1A2*1–*3 and OCT1-3 net uptake was obtained by subtracting the uptake into wild-type cells from that of the transporter-transfected cells. […]
Protocol for OATP1A2*3: as §1, §2, §3, §4
Protocol for OCT1-3 and OATP1A2: as §1, §2
Statistical evaluation: All experiments were performed at least three times unless otherwise noted. The OATP1A2*1–*3 and OCT1-3 net uptake was obtained by subtracting the uptake into wild-type cells from that of the transporter-transfected cells. Km and Vmax were assessed using Prism 5.01 (GraphPad Software, San Diego, CA, USA). […] Km and Vmax are presented as arithmetic means ± standard deviation.
Protocol for OCT2: as §1
Statistical evaluation: All experiments were performed at least three times unless otherwise noted. The OATP1A2*1–*3 and OCT1-3 net uptake was obtained by subtracting the uptake into wild-type cells from that of the transporter-transfected cells. Km and Vmax were assessed using Prism 5.01 (GraphPad Software, San Diego, CA, USA). The differences in the doxorubcin uptake in OATP1A2*1–*3 and in OCT1-3 transfected cells were adjusted to the membranous transporter protein levels in the whole cell lysate. Km and Vmax are presented as arithmetic means ± standard deviation.

Take `COc1cccc2c1C(=O)c1c(O)c3c(c(O)c1C2=O)C[C@@](O)(C(=O)CO)C[C@@H]3O[C@H]1C[C@H](N)[C@H](O)[C@H](C)O1` [doxorubicin, Doxorubicin]: the intrinsic clearance (microsomal CLint) – broadly, a measure of how fast metabolising enzymes remove a compound, apart from limits set by blood flow – at 3 min is 0.5 ± 0.26 µL/min/mg at OCT2 and 4.16 ± 1.1 µL/min/mg on OCT1. In addition, the “risk of congestive heart failure” value in series [1] is 3–18%. Besides, the Michaelis constant (Km) (usually the concentration of substrate that gives half-maximal velocity) at OATP1A2*3 (HEK293 cells stably expressing OATP1A2*3) is 5.94 ± 3.07 µM; in the series on OCT1-3 and OATP1A2, 5 to 13 µM. Further, the microsomal CLint on OATP1A2*3 (other cell line) was 2.32 ± 0.99 µL/min/mg. Further, the “plasma concentrations of doxorubicin” value is given as ~ 1 µmol/L in series [2] (conversion of 600 ng/mL) and “up to 600 ng/mL” in series [2]. Further, the Michaelis constant (Km) at 5 min on OATP1A2*1 (HEK293 cells stably expressing OATP1A2*1) turned out to be 7.49 ± 3.41 µM. In addition, the intrinsic metabolic clearance (microsomal CLint) at 5 min on OATP1A2*1 (other cell line) was 4.71 ± 1.53 µL/min/mg.

The record behind these values is publication PMC8745601 (International Journal of Molecular Sciences, 2021).
